Source: EPA's ToxValDB 9.5 (doi:10.2903/j.efsa.2008.145r)
Values after ≈ are worked out from the molar mass of the structure shown.

Assays:
[1] = system: Rattus norvegicus
[2] = system: Tagia sp.; conditions: acute; duration: 14 days; mortality
[3] = system: Daphnia magna; conditions: chronic/long-term; duration: 21 days; reproduction
[4] = system: Oncorhynchus mykiss
[5] = system: Apis mellifera; conditions: acute; duration: 48 hours; oral; unspecified; mortality
[6] = system: Colinus virginianus
[7] = system: Coturnix japonica; conditions: acute, oral, mortality
[8] = system: Bibionidae; conditions: chronic/long-term; duration: 28 days

For `Cc1cccc(C)c1N(Cn1cccn1)C(=O)CCl` [Metazachlor], the LD50 ([1]; acute, mortality) was > 2000 mg/kg, the NOAEL ([1]; chronic) was 79 mg/kg-day and the NOAEL ([1]; chronic, duration: 2 years, organ weight) was 8.5 mg/kg-day. The NOAEL ([1]; developmental, development) was 50 mg/kg-day, the NOAEL ([1]; subchronic, duration: 90 days, oral, organ weight) was 21 mg/kg-day and the LC50 [2] was > 1000 mg/kg. It also gave an NOEC [3] of 0.1 mg/L, an LC50 ([4]; acute, duration: 96 hours, mortality) of 8.5 µg/mL (≈ 30.6 µM) and an NOEC ([4]; chronic/long-term, duration: 28 days, growth) of 2.15 mg/L. For the same molecule, the LD50 [5] was > 72.2 µg/piece, the LD50 ([6]; acute, oral, mortality) was > 2000 mg/kg and the NOEL ([6]; reproduction developmental) was 76.5 mg/kg-day. The LD50 ([7]; diet) was > 449 mg/kg-day, the LD50 [7] was > 2000 mg/kg and the NOEC [8] was 7.93 mg/kg.
